Measured values taken from ChEMBL document CHEMBL1201862, “PubChem BioAssay data set” (2004).
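All cell lines were grown in 96-well plates and treated with compound for 48 hours. GI50: concentration for 50% inhibition of growth.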 Activity calls are given as the source filed them. Rule as the data show it: active = GI50 up to about 1.1 µM and inactive = higher.

Key:
Test in all cases: NCI anticancer screen, dose series, 48 h
SF-268 = system: SF-268
KM12 = system: KM12
UACC-62 = system: UACC-62
786-0 = system: 786-0
OVCAR-5 = system: OVCAR-5
SK-MEL-2 = system: SK-MEL-2
TK-10 = system: TK-10
CAKI-1 = system: CAKI-1
HOP-62 = system: HOP-62
IGROV-1 = system: IGROV-1
SW-620 = system: SW-620
U-251 = system: U-251
HT-29 = system: HT-29
CCRF-CEM = system: CCRF-CEM
UACC-257 = system: UACC-257
A549 = system: A549
SF-295 = system: SF-295
UO-31 = system: UO-31
MOLT-4 = system: MOLT-4
SR = system: SR
HCC 2998 = system: HCC 2998
Malme-3M = system: Malme-3M
K562 = system: K562
NCI-H23 = system: NCI-H23
COLO 205 = system: COLO 205
SNB-19 = system: SNB-19
M14 = system: M14
DMS-273 = system: DMS-273
LXFL 529 = system: LXFL 529
SK-OV-3 = system: SK-OV-3
HOP-18 = system: HOP-18
SK-MEL-28 = system: SK-MEL-28
SK-MEL-5 = system: SK-MEL-5
HCT-116 = system: HCT-116
LOX IMVI = system: LOX IMVI
DLD-1 = system: DLD-1
M19-MEL = system: M19-MEL
OVCAR-4 = system: OVCAR-4
HOP-92 = system: HOP-92
NCI-H226 = system: NCI-H226
A498 = system: A498
RPMI-8226 = system: RPMI-8226
OVCAR-8 = system: OVCAR-8
DMS-114 = system: DMS-114
SF-539 = system: SF-539
OVCAR-3 = system: OVCAR-3
EKVX = system: EKVX
SNB-75 = system: SNB-75
ACHN = system: ACHN
SN12C = system: SN12C
SNB-78 = system: SNB-78
RXF 393 = system: RXF 393
HCT-15 = system: HCT-15
HL-60 = system: HL-60
NCI-H522 = system: NCI-H522
NCI-H460 = system: NCI-H460
KM-20L2 = system: KM-20L2

For `COc1cc(OC)c2c(=O)c3c([N+](=O)[O-])cccc3n(C)c2c1`, the GI50 (SF-268) was > 100 µM (inactive), the GI50 (KM12) was > 100 µM (inactive) and the GI50 (UACC-62) was > 100 µM (inactive). For the same compound, the GI50 (786-0) was > 100 µM (inactive), the GI50 (OVCAR-5) was > 100 µM (inactive) and the GI50 (SK-MEL-2) was > 100 µM (inactive). For the same compound, the GI50 (TK-10) was > 100 µM (inactive), the GI50 (CAKI-1) was > 100 µM (inactive) and the GI50 (HOP-62) was > 100 µM (inactive). The GI50 (IGROV-1) was > 100 µM (inactive), the GI50 (SW-620) was > 100 µM (inactive) and the GI50 (U-251) was 94.8 µM (inactive). For the same compound, the GI50 (HT-29) was > 100 µM (inactive), the GI50 (CCRF-CEM) was > 100 µM (inactive) and the GI50 (UACC-257) was > 100 µM (inactive). For the same compound, the GI50 (A549) was > 100 µM (inactive), the GI50 (SF-295) was > 100 µM (inactive) and the GI50 (UO-31) was > 100 µM (inactive). The GI50 (MOLT-4) was > 100 µM (inactive), the GI50 (SR) was > 100 µM (inactive) and the GI50 (HCC 2998) was > 100 µM (inactive). The GI50 (Malme-3M) was > 100 µM (inactive), the GI50 (K562) was > 100 µM (inactive) and the GI50 (NCI-H23) was > 100 µM (inactive). The GI50 (COLO 205) was > 100 µM (inactive), the GI50 (SNB-19) was > 100 µM (inactive) and the GI50 (M14) was > 100 µM (inactive). For the same compound, the GI50 (DMS-273) was > 100 µM (inactive), the GI50 (LXFL 529) was > 100 µM (inactive) and the GI50 (SK-OV-3) was > 100 µM (inactive). The GI50 (HOP-18) was > 100 µM (inactive), the GI50 (SK-MEL-28) was > 100 µM (inactive) and the GI50 (SK-MEL-5) was > 100 µM (inactive). For the same compound, the GI50 (HCT-116) was > 100 µM (inactive), the GI50 (LOX IMVI) was > 100 µM (inactive) and the GI50 (DLD-1) was > 100 µM (inactive). The GI50 (M19-MEL) was > 100 µM (inactive), the GI50 (OVCAR-4) was > 100 µM (inactive) and the GI50 (HOP-92) was > 100 µM (inactive). For the same compound, the GI50 (NCI-H226) was > 100 µM (inactive), the GI50 (A498) was > 100 µM (inactive) and the GI50 (RPMI-8226) was > 100 µM (inactive). For the same compound, the GI50 (OVCAR-8) was > 100 µM (inactive), the GI50 (DMS-114) was > 100 µM (inactive) and the GI50 (SF-539) was > 100 µM (inactive). The GI50 (OVCAR-3) was > 100 µM (inactive), the GI50 (EKVX) was > 100 µM (inactive) and the GI50 (SNB-75) was > 100 µM (inactive). For the same compound, the GI50 (ACHN) was > 100 µM (inactive), the GI50 (SN12C) was > 100 µM (inactive) and the GI50 (SNB-78) was > 100 µM (inactive). For the same compound, the GI50 (RXF 393) was > 100 µM (inactive), the GI50 (HCT-15) was over 100 µM and the GI50 (HL-60) was > 100 µM (inactive). The GI50 (NCI-H522) was > 100 µM (inactive), the GI50 (NCI-H460) was > 100 µM (inactive) and the GI50 (KM-20L2) was > 100 µM (inactive).
